Test results reported in ChEMBL document CHEMBL1135579, “Serine-threonine protein phosphatase inhibitors: development of potential therapeutic strategies” (J Med Chem, 2002).

Key:
[1] = Inhibition of growth after 72 hr continuous exposure to test compounds in Ovarian A2780 tumor cell lines; format: functional; settings: A2780, 72 h
[2] = Inhibition of growth after 72 hr continuous exposure to test compounds in Osteosarcoma 143B tumor cell lines; format: functional; settings: Homo sapiens
[3] = Inhibition of growth after 72 hr continuous exposure to test compounds in Ovarian ADDP tumor cell lines; format: functional
[4] = Inhibition of growth after 72 hr continuous exposure to test compounds in Colon HCT 116 tumor cell lines; format: functional; settings: Homo sapiens, HCT-116, 72 h
[5] = Inhibition of growth after 72 hr continuous exposure to test compounds in colon HT-29 tumor cell lines; format: functional; settings: Homo sapiens, HT-29, 72 h
Jurkat [6] = assay: Inhibition of production of beta-galactosidase thymidine kinase RGA in Jurkat cells; format: functional, cell-based; settings: Homo sapiens
Jurkat [7] = assay: Inhibition of production of beta-galactosidase IL-2 RGA in Jurkat cells; format: functional, cell-based; settings: Homo sapiens
[8] = Inhibition of microcystin analogues to catalytic subunits of Serine/threonine protein phosphatase 1C
HCT-8 = assay: Reduction of tumor cell growth to 50% in Fostriecin analogues in HCT-8 colon cancer cell lines; format: functional; settings: Homo sapiens
L1210 = assay: Reduction of tumor cell growth to 50% in Fostriecin analogues in L1210 Leukemia cell lines; format: functional; settings: Mus musculus
[9] = Exogenous inhibition concentration of Serine/threonine protein phosphatase 2B (PP2B)
[10] = Exogenous inhibition of Serine/threonine protein phosphatase 1 (PP1); design: species or system Homo sapiens
[11] = Exogenous inhibition concentration of Serine/threonine protein phosphatase 2A (PP2A)
Jurkat [12] = assay: Inhibition of production of IL-2 secretion in Jurkat cells; format: functional, cell-based; settings: Homo sapiens

SMILES: CCOC1OC(=O)[C@H]2[C@@H]1[C@@H]1CC[C@H]2O1 (some centres not stated)
- GI50 [1]: 100 µM
- GI50 [2]: 103 µM
- GI50 [3]: 107 µM
- GI50 [4]: 80 µM
- GI50 [5]: 26 µM

SMILES: O=C(O)[C@@H]1[C@H](C(=O)O)[C@H]2CC[C@@H]1O2
- IC50 (Jurkat [6]): 42 µM
- IC50 (Jurkat [7]): > 100 µM

SMILES: CCCOC(=O)C1C(C(=O)O)C2CC[C@H]1O2 (some centres not stated)
- GI50 [1]: 110 µM
- GI50 [2]: 450 µM
- GI50 [3]: 315 µM
- GI50 [4]: 75 µM
- GI50 [5]: 15 µM

SMILES: CO[C@@H](Cc1ccccc1)[C@@H](C)/C=C(C)/C=C/[C@@H]1NC(=O)[C@H](C)NC(=O)[C@@H](C)[C@H](C(=O)O)CC(=O)[C@H](CC(C)C)NC(=O)[C@@H](C)NC(=O)CN(C)C(=O)CC[C@H](C(=O)O)NC(=O)[C@H]1C
- IC50 [8]: 0.0008 µM

SMILES: C[C@@](O)(/C=C/COC(=O)/C=C\CO)[C@@H](C[C@@H](O)\C=C/C=C\C=C\CO)OP(=O)(O)O
- GI50 (HCT-8): 56 µM
- GI50 (L1210): > 1 µM

SMILES: C=CC[C@@H]1/C=C(\C)C[C@H](C)C[C@H](OC)[C@H]2O[C@@](O)(C(=O)C(=O)N3CCCC[C@H]3C(=O)O[C@H](/C(C)=C/[C@@H]3CC[C@@H](O)[C@H](OC)C3)[C@H](C)[C@@H](O)CC1=O)[C@H](C)C[C@@H]2OC [TACROLIMUS ANHYDROUS]
- IC50 [9]: 0.0005 µM

SMILES: C[C@@](O)(/C=C/[C@H]1CC=CC(=O)O1)[C@@H](C[C@@H](O)\C=C/C=C\C=C\CO)OP(=O)(O)O [FOSTRIECIN]
- GI50 (HCT-8): 2.3 µM
- GI50 (L1210): 0.21 µM
- IC50 [10]: 131 µM

SMILES: CO[C@@H](Cc1ccccc1)[C@@H](C)/C=C(C)/C=C/[C@@H]1NC(=O)[C@H](C)NC(=O)[C@@H](C)[C@H](C(=O)O)CC(=O)[C@H](CC(C)C)NC(=O)[C@@H](C)NC(=O)CN(C2CCCCC2)C(=O)CC[C@H](C(=O)O)NC(=O)[C@H]1C
- IC50 [8]: 0.0008 µM

SMILES: C=C1C(=O)N[C@H](C)C(=O)N[C@@H](CC2CCCCC2)C(=O)C[C@@H](C(=O)O)[C@H](C)C(=O)N[C@@H](C)C(=O)N[C@@H](/C=C/C(C)=C/[C@H](C)[C@H](Cc2ccccc2)OC)[C@H](C)C(=O)N[C@@H](C(=O)O)CCC(=O)N1C
- IC50 [8]: 0.00052 µM

SMILES: C[C@@](O)(/C=C/[C@@H]1OC(=O)C=CC1O)[C@@H](C[C@@H](O)\C=C/C=C\C=C\CO)OP(=O)(O)O (some centres not stated)
- GI50 (HCT-8): 4.2 µM
- GI50 (L1210): 0.83 µM

SMILES: CC1(C(=O)O)C2CCC(O2)C1(C)C(=O)O (configuration not stated)
- IC50 [11]: 0.05 µM
- IC50 [10]: 0.6 µM

SMILES: CN(C)C(=O)C1C(C(=O)O)C2CC[C@H]1O2 (some centres not stated)
- IC50 (Jurkat [12]): 5 µM
- IC50 (Jurkat [6]): 100 µM
- IC50 (Jurkat [7]): 4.7 µM

SMILES: CC(=O)OC(C)(C)[C@H]1CC[C@](C)([C@@H](O)CC[C@](C)(O)[C@H]2CC[C@H]3O[C@@H]([C@]4(C)CC[C@@H](Br)C(C)(C)O4)CC[C@]3(C)O2)O1
- IC50 [11]: 4 µM
- IC50 [9]: > 10000 µM
- IC50 [10]: > 1000 µM

SMILES: C=C1C(=O)N[C@H](CN)C(=O)N[C@@H](CC(C)C)C(=O)C[C@@H](C(=O)O)[C@H](C)C(=O)N[C@@H](C)C(=O)N[C@@H](/C=C/C(C)=C/[C@H](C)[C@H](Cc2ccccc2)OC)[C@H](C)C(=O)N[C@@H](C(=O)O)CCC(=O)N1C
- IC50 [8]: 0.003 µM
